Experiment [1] concerns the target T1, human B1R receptor (Homo sapiens, UniProt P46663).
T1 construct: host or cells: CHO K1 cells (Chinese hamster ovary), stably transfected
T1 sequence (P46663 1-353): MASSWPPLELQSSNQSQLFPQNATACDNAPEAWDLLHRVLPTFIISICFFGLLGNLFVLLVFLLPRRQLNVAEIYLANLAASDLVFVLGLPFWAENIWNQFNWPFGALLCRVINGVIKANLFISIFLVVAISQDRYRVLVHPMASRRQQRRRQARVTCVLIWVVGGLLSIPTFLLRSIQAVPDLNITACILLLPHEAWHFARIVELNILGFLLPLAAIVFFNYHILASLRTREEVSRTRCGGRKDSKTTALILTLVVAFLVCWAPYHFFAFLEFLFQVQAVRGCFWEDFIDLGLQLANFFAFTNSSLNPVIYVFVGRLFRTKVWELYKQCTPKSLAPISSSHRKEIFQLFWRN
Nature of the experiment: Functional study on the bradykinin receptor 1 (B1R), FLIPR Ca2+ assay, hB1R cells. Format: cell-based. As to conditions: CHO-K1, test substance 10 μM, agonist Lys-Des-Arg9-bradykinin 0.5 nM, % inhibition compared with the maximum achievable inhibition, read-out: B1R Antagonism, human [10 μM] % Inhibition. In outline:
(§1)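 CHO K1 cells stably expressing human or rat B1R were loaded with Fluo-4 and read on a FLIPR (ex 488/em 540 nm, peak fluorescence). Test compounds at 10 μM were added first, then after 10 min agonist: Lys-Des-Arg9-bradykinin 0.5 nM for hB1R, Des-Arg9-bradykinin 100 nM for rB1R; % inhibition versus maximum inhibition.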

Experiment [2] concerns the target T2, B1R receptor of the rat (Rattus norvegicus, UniProt P97583).
T2 construct: host or cells: CHO K1 cells (Chinese hamster ovary), stably transfected
T2 sequence (P97583 1-337): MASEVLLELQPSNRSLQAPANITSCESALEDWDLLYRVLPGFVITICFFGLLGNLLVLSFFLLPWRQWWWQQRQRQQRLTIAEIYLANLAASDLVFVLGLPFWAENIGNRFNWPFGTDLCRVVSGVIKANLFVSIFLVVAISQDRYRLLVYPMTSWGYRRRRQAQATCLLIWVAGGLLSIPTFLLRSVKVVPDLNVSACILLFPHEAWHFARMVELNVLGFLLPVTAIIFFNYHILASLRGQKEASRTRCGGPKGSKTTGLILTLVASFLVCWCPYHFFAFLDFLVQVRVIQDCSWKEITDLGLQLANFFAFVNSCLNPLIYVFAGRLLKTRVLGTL
Description: Functional study on the bradykinin receptor 1 (B1R), FLIPR Ca2+ assay, rB1R cells. The conditions noted are these: CHO-K1, test substance 10 μM, agonist Des-Arg9-bradykinin 100 nM, % inhibition compared with the maximum achievable inhibition, read-out: B1R Antagonism, rat [10 μM] % Inhibition. Format: cell-based. In short, it runs like this: as §1

Where a name gives a salt, the structure may show the parent alone.

The term inhibition denotes the change of the read-out against control, counted positive when it falls. With `COc1cc(C)c(S(=O)(=O)N2CCCCC2COCC(=O)Nc2nccc3ccccc23)c(C)c1` (centres unmarked) [Example 370, N-(isoquinolin-1-yl)-2-((1-(4-methoxy-2,6-dimethylphenylsulfonyl)piperidin-2-yl)methoxy)acetamide], the results for the inhibition at 10 µM in experiment [1] and in experiment [2] were 18.7% and 98.8%, respectively.

Take `Cc1cc(C)c(S(=O)(=O)N2CCCCC2COCC(=O)N2CCCN(Cc3ccccc3)CC2)c(C)c1` (centres unmarked) [Example 31, 1-(4-benzyl-[1,4]diazepan-1-yl)-2-[1-(2,4,6-trimethyl-phenylsulfonyl)-piperidin-2-ylmethoxy]-ethanone]: the inhibition at 10 µM worked out at 83.8% in experiment [1] and 94.7% in experiment [2].

For `Cc1ccc2[nH]c(C3CCN(C(=O)COCC4CCCCN4S(=O)(=O)c4c(Cl)cccc4Cl)CC3)nc2c1` (centres unmarked) [Example 487, 2-((1-(2,6-dichlorophenylsulfonyl)piperidin-2-yl)methoxy)-1-(4-(5-methyl-1H-benzo[d]imidazol-2-yl)piperidin-1-yl)ethanone], the inhibition at 10 µM in experiment [1] was found to be 101%; in experiment [2], 99.1%.

For the molecule `Cc1cc(C)c(S(=O)(=O)N2CCCCC2COCC(=O)NCc2ccccc2N2CCN(C)CC2)c(C)c1` (centres unmarked) [Example 80, N-[2-(4-methyl-piperazin-1-yl)-benzyl]-2-[1-(2,4,6-trimethyl-phenylsulfonyl)-piperidin-2-ylmethoxy]-acetamide], the inhibition at 10 µM in experiment [1] is 45.3%; in experiment [2], 22.5%.

Take `COc1cc(C)c(S(=O)(=O)N2CCCC2COCC(=O)NCc2ccc(CN3CCOCC3)cc2)c(C)c1` (centres unmarked) [Example 55, 2-[1-(4-methoxy-2,6-dimethyl-phenylsulfonyl)-pyrrolidin-2-ylmethoxy]-N-(4-morpholin-4-ylmethyl-benzyl)-acetamide]: the inhibition at 10 µM in experiment [1] came out at 63.2%; in experiment [2], 88.8%.

Consider `COc1cc(C)c(S(=O)(=O)N2CCCCC2COCC(=O)N2CCN(C(C)C)CC2)c(C)c1` (centres unmarked) [Example 291, 1-(4-isopropylpiperazin-1-yl)-2-((1-(4-methoxy-2,6-dimethylphenylsulfonyl)piperidin-2-yl)methoxy)ethanone], for which the inhibition at 10 µM is 104% in experiment [1] and 93% in experiment [2].

As for `COc1cc(C)c(S(=O)(=O)N2CCCCC2COCC(=O)N2CCN(c3cccc(C(F)(F)F)c3)CC2)c(C)c1` (centres unmarked) [Example 509, 2-((1-(4-methoxy-2,6-dimethylphenylsulfonyl)piperidin-2-yl)methoxy)-1-(4-(3-(trifluoromethyl)phenyl)piperazin-1-yl)ethanone], the inhibition at 10 µM in experiment [1] turned out to be 92.7%; in experiment [2], 102%.

Regarding `Cc1cccc(Cl)c1S(=O)(=O)N1CCC[C@@H]1COCC(=O)N1CCN(C2CCN(C)CC2)CC1` [Example 152, (R)-2-((1-(2-chloro-6-methylphenylsulfonyl)pyrrolidin-2-yl)methoxy)-1-(4-(1-methylpiperidin-4-yl)piperazin-1-yl)ethanone dihydrochloride], the inhibition at 10 µM in experiment [1] is 100%; in experiment [2], 90.8%.

On to `COc1cc(C)c(S(=O)(=O)N2CCCCC2COCC(=O)NCCCCCN(C)C)c(C)c1` (centres unmarked) [Example 250, N-(5-(dimethylamino)pentyl)-2-((1-(4-methoxy-2,6-dimethylphenylsulfonyl)piperidin-2-yl)methoxy)acetamide], for which the inhibition at 10 µM in experiment [1] is 96.8%; in experiment [2] it was 90.5%.

Consider `O=C(COCC1Cc2ccccc2CN1S(=O)(=O)c1ccc(Cl)c(Cl)c1)N1CCC(N2CCCC2)CC1` (centres unmarked) [Example 38, 2-((2-(3,4-dichlorophenylsulfonyl)-1,2,3,4-tetrahydroisoquinolin-3-yl)methoxy)-1-(4-(pyrrolidin-1-yl)piperidin-1-yl)ethanone], for which the inhibition at 10 µM in experiment [1] stood at 75%; in experiment [2], 65.4%.

Regarding `Cc1cc(S(=O)(=O)N2CCCCC2COCC(=O)N2CCN(Cc3ccccc3)CC2)c(C)cc1Cl` (centres unmarked) [Example 568, 1-(4-benzylpiperazin-1-yl)-2-((1-(4-chloro-2,5-dimethylphenylsulfonyl)piperidin-2-yl)methoxy)ethanone], the results for the inhibition at 10 µM in experiment [1] and in experiment [2] were 38.5% and 81.3%, respectively.

On to `Cc1cc(C)nc(CC2CCCN2C(=O)COCC2CCCCN2S(=O)(=O)c2c(Cl)cccc2Cl)c1` (centres unmarked) [Example 457, 2-((1-(2,6-dichlorophenylsulfonyl)piperidin-2-yl)methoxy)-1-(2-((4,6-dimethylpyridin-2-yl)methyl)pyrrolidin-1-yl)ethanone], for which the inhibition at 10 µM was 102% in experiment [1] and 99.7% in experiment [2].

Take `COc1cc(C)c(S(=O)(=O)N2CCCCC2COCC(=O)NCCc2c[nH]c3ccccc23)c(C)c1` (centres unmarked) [Example 243, N-(2-(1H-indol-3-yl)ethyl)-2-((1-(4-methoxy-2,6-dimethylphenylsulfonyl)piperidin-2-yl)methoxy)acetamide]: the inhibition at 10 µM in experiment [1] was 24.8%; in experiment [2], 80.6%.

With `COc1cc(C)c(S(=O)(=O)N2CCCCC2COCC(=O)Nc2cc(-c3ccc(C)cc3)n[nH]2)c(C)c1` (centres unmarked) [Example 544, 2-((1-(4-methoxy-2,6-dimethylphenylsulfonyl)piperidin-2-yl)methoxy)-N-(3-p-tolyl-1H-pyrazol-5-yl)acetamide], the inhibition at 10 µM in experiment [1] came out at 11.7%; in experiment [2], 107%.

`COc1cc(C)c(S(=O)(=O)N2CCCCC2COCC(=O)N2CCN(Cc3cnc(N(C)c4ccc(F)cc4)nc3)CC2)c(C)c1` (centres unmarked) [Example 214, 1-(4-((2-((4-fluorophenyl)(methyl)amino)pyrimidin-5-yl)methyl)piperazin-1-yl)-2-((1-(4-methoxy-2,6-dimethylphenylsulfonyl)piperidin-2-yl)methoxy)ethanone]: the inhibition at 10 µM amounted to 101% in experiment [1] and 102% in experiment [2].

As to `O=C(COCC1CCCCN1S(=O)(=O)c1c(Cl)cccc1Cl)N1CCN(c2cccc(C(F)(F)F)c2)CC1` (centres unmarked) [Example 481, 2-((1-(2,6-dichlorophenylsulfonyl)piperidin-2-yl)methoxy)-1-(4-(3-(trifluoromethyl)phenyl)piperazin-1-yl)ethanone], the inhibition at 10 µM in experiment [1] was determined as 72.6%; in experiment [2], 104%.

With `COc1cc(C)c(S(=O)(=O)N2CCCC2COCC(=O)NCc2ccc(CN3CCCCC3)cc2)c(C)c1` (centres unmarked) [Example 1, 2-[1-(4-methoxy-2,6-dimethyl-phenylsulfonyl)-pyrrolidin-2-ylmethoxy]-N-(4-piperidin-1-ylmethyl-benzyl)-acetamide], the inhibition at 10 µM is 105% in experiment [1] and 107% in experiment [2].

Regarding `O=C(COCC1CCCCN1S(=O)(=O)c1c(Cl)cccc1Cl)N(Cc1ccccc1)c1ccccn1` (centres unmarked) [Example 486, N-benzyl-2-((1-(2,6-dichlorophenylsulfonyl)piperidin-2-yl)methoxy)-N-(pyridin-2-yl)acetamide], the inhibition at 10 µM in experiment [1] was 70.4%; in experiment [2], 101%.

With `CN1CCC(N2CCN(C(=O)COCC3CCCN3S(=O)(=O)c3c(Cl)cccc3Cl)CC2)CC1` (centres unmarked) [Example 567, 2-((1-(2,6-dichlorophenylsulfonyl)pyrrolidin-2-yl)methoxy)-1-(4-(1-methylpiperidin-4-yl)piperazin-1-yl)ethanone], the inhibition at 10 µM in experiment [1] amounted to 104%; in experiment [2], 102%.

As for `COc1cc(C)c(S(=O)(=O)N2CCCCC2COCC(=O)N2CCC(c3nc4cc(C)ccc4[nH]3)CC2)c(C)c1` (centres unmarked) [Example 397, 2-((1-(4-methoxy-2,6-dimethylphenylsulfonyl)piperidin-2-yl)methoxy)-1-(4-(5-methyl-1H-benzo[d]imidazol-2-yl)piperidin-1-yl)ethanone], the values for the inhibition at 10 µM in experiment [1] and in experiment [2] were 97.2% and 101%, respectively.

Consider `O=C(COCC1CCCN1S(=O)(=O)c1c(Cl)cccc1Cl)N1CCN(Cc2ccc(Cl)cc2)CC1` (centres unmarked) [Example 359, 1-(4-(4-chlorobenzyl)piperazin-1-yl)-2-((1-(2,6-dichlorophenylsulfonyl)pyrrolidin-2-yl)methoxy)ethanone], for which the inhibition at 10 µM was 98.6% in experiment [1] and 103% in experiment [2].

In the case of `COc1cc(C)c(S(=O)(=O)N2Cc3ccccc3CC2COCC(=O)N2CCN(CC3CCN(C)CC3)CC2)c(C)c1C` (centres unmarked) [Example 563, 2-((2-(4-methoxy-2,3,6-trimethylphenylsulfonyl)-1,2,3,4-tetrahydroisoquinolin-3-yl)methoxy)-1-(4-((1-methylpiperidin-4-yl)methyl)piperazin-1-yl)ethanone], the inhibition at 10 µM in experiment [1] came to 102%; in experiment [2] it was 100%.

For the origin of these results see US8435978B2, “Substituted sulfonamide compounds” (Gruenenthal GmbH, priority 2006, dated 2013).
